# Measured values from ChEMBL document CHEMBL4715893, “Inhibitory effects of sesquiterpene lactones from the Indonesian marine sponge Lamellodysidea cf. herbacea on bone morphogenetic protein-induced osteoblastic differentiation” (Bioorg Med Chem Lett, 2021).
# Experiments:
# C2C12 = assay: Cytotoxicity against mouse C2C12 cells assessed as reduction in cell viability by MTT assay; type: cell-based
# [1] = Inhibition of BMP-induced mouse C2C12 cells osteoblastic differentiation assessed as reduction in alkaline phosphatase activity; type: functional, cell-based
IC50 [1] [µM],SMILES,IC50 (C2C12) [µM]
51,C=C1C[C@@H]2C[C@@](C)(CCC3=CC(=O)O[C@@]32OC)[C@H]1C,> 76
20,COC1C=C(CC[C@]2(C)C(C)=CCC[C@H]2C)C(=O)O1 (stereo partly specified),> 38
4.8,CC1=CCC[C@@H](C)[C@]1(C)CCC1=CC(=O)OC1O (stereo partly specified),> 40
